Results on 12 compounds are retold here after ChEMBL document CHEMBL1150919, “The inhibition of the reverse transcriptase of HIV-1 by the natural sulfoglycolipids from cyanobacteria: contribution of different moieties to their high potency” (J Nat Prod, 1998).

Each structure is given as a SMILES string.

Assay [1] concerns the target Human immunodeficiency virus type 1 reverse transcriptase (Human immunodeficiency virus 1) (UniProt Q72547). Briefly: (§1) Inhibition of HIV1 reverse transcriptase activity assessed as residual enzyme activity by poly(rA)n.oligo(dT)12-18-directed incorporation of [3H]dTTP into DNA.
Assay [2] addresses Human immunodeficiency virus type 1 reverse transcriptase (Human immunodeficiency virus 1, UniProt Q72547). The assay is described as §1.
Assay [3] deals with Human immunodeficiency virus 1. The experiment in a line: Inhibition of HIV1 RNase H activity assessed as residual enzyme activity by poly(rA)n.oligo(dT)12-18-directed incorporation of [3H]dTTP into DNA at 100 uM relative to control.
Assay [4] is described as follows: Inhibition of HIV2 reverse transcriptase-mediated DNA polymerase activity. Also noted: species or system Human immunodeficiency virus 2.

As to `CCCCCCCC/C=C\CCCCCCCC(=O)OC[C@H](CO[C@@H]1O[C@H](CO)[C@H](O)[C@H](O)[C@H]1O)OC(=O)CCCCCCCCCCCCCCC`, in assay [1], the IC90 (as a rule, the point of the concentration-response curve where the effect stands at 90%) was greater than 100 µM. For the same compound, in assay [2], the IC50 (usually the concentration that inhibits the measured activity by half) stood at 65 µM. In addition, the Activity in assay [3] turned out to be 100%.

In the case of `OC[C@@H](O)CO[C@H]1O[C@H](CO)[C@@H](O)[C@H](O)[C@H]1O`, the half-inhibitory concentration (IC50) in assay [2] is greater than 100 µM.

Regarding `OC[C@@H](O)CO[C@@H]1O[C@H](CO[C@H]2O[C@H](CO)[C@H](O)[C@H](O)[C@H]2O)[C@H](O)[C@H](O)[C@H]1O`, the IC50 in assay [2] was greater than 100 µM.

With `CCCCC/C=C\C/C=C\CCCCCCCC(=O)OC[C@H](CO[C@@H]1O[C@H](CO[C@H]2O[C@H](CO)[C@H](O)[C@H](OC(=O)CCCCCCCCCCCCCCC)[C@H]2O)[C@H](O)[C@H](O)[C@H]1O)OC(=O)CCCCCCCCCCCCCCC`, the IC90 in assay [1] is greater than 100 µM. In addition, the 50% inhibitory concentration (IC50) in assay [2] is 99.4 µM. Also, in assay [3], the Activity turned out to be 100%.

`CCCCCCCCCCCCCCCC(=O)OC[C@H](CO[C@@H]1O[C@H](CO)[C@H](O)[C@H](O)[C@H]1O)OC(=O)CCCCCCCCCCCCCCC`: the concentration for an effect of 90% (IC90) in assay [1] was greater than 100 µM. Further, the IC50 in assay [2] was greater than 100 µM. The Activity in assay [3] is 100%.

Regarding `CCCCCCCCCCCCCCCC(=O)OC[C@H](CO[C@H]1O[C@H](CS(=O)(=O)O)[C@@H](O)[C@H](O)[C@H]1O)OC(=O)CCCCCCCCCCCCCCC`, in assay [1], the concentration for an effect of 90% (IC90) was 0.465 µM. The half-inhibitory concentration (IC50) in assay [2] turned out to be 0.112 µM. For the same compound, in assay [3], the Activity is 45%.

`CCCCC/C=C\C/C=C\CCCCCCCC(=O)OC[C@H](CO[C@H]1O[C@H](CS(=O)(=O)O)[C@@H](O)[C@H](OC(=O)CCCCCCCCCCCCCCC)[C@H]1OC(=O)CCCCCCCCCCCCCCC)OC(=O)CCCCCCCCCCCCCCC`: in assay [1], the IC90 stood at 14 µM. In addition, the concentration for half-maximal inhibition (IC50) in assay [2] came to 2.95 µM. Further, the Activity in assay [3] came to 100%.

As for `OC[C@@H](O)CO[C@@H]1O[C@H](CO)[C@H](O)[C@H](O)[C@H]1O`, in assay [2], the half-inhibitory concentration (IC50) is greater than 100 µM.

For the compound `CCCCC/C=C\C/C=C\CCCCCCCC(=O)OC[C@H](CO[C@@H]1O[C@H](CO)[C@H](O)[C@H](O)[C@H]1O)OC(=O)CCCCCCCCCCCCCCC`, in assay [1], the IC90 is greater than 100 µM. Further, the IC50 in assay [2] stood at 38 µM. In addition, in assay [3], the Activity was found to be 100%.

As for `CCCCCCCC/C=C\CCCCCCCC(=O)OC[C@H](CO[C@H]1O[C@H](CS(=O)(=O)O)[C@@H](O)[C@H](O)[C@H]1O)OC(=O)CCCCCCCCCCCCCCC`, the 90% effect concentration (IC90) in assay [1] was determined as 0.076 µM. Besides, the half-inhibitory concentration (IC50) in assay [2] is 0.024 µM; in assay [4], 0.034 µM. Further, the Activity in assay [3] amounted to 66%.

Take `CCCCC/C=C\C/C=C\CCCCCCCC(=O)OC[C@H](CO[C@H]1O[C@H](CS(=O)(=O)O)[C@@H](O)[C@H](O)[C@H]1O)OC(=O)CCCCCCCCCCCCCCC`: the concentration for an effect of 90% (IC90) in assay [1] is 0.28 µM. The IC50 in assay [2] is 0.077 µM. Also, the Activity in assay [3] amounted to 100%.

With `O=S(=O)(O)C[C@H]1O[C@H](OC[C@H](O)CO)[C@H](O)[C@@H](O)[C@@H]1O`, in assay [1], the 90% effect concentration (IC90) is greater than 100 µM. Also, in assay [2], the IC50 amounted to 75 µM.
